The source of these data is paper PMC9227536, “Prediction of Pharmacokinetics of IDP-73152 in Humans Using Physiologically-Based Pharmacokinetics” (Pharmaceutics, 2022).

A short description of data set [1]: Metabolic stability in liver microsomes, human. The class given is in vitro ADME. How it is done: (§1) In this study, the metabolic stability of IDP-73152 in microsomes from mice, rats, dogs, and humans, as well as rat hepatocytes, was determined. For a microsomal incubation study, the incubation mixtures, containing mouse, rat, dog, or human liver microsomes at a protein concentration of 0.5 mg/mL, 3.3 mM MgCl2, and 1.3 mM NADPH, in a 100 mM potassium phosphate buffer (pH 7.4), were preincubated for 3 min at 37 °C. In parallel, a control incubation mixture (i.e., identical composition to that of the incubation mixture without NADPH) was also prepared for comparison. The reaction was initiated by the addition of a 10 × solution of IDP-73152 (final concentration in mixtures of 1 μM) to the incubation mixtures or the control incubation mixtures. The mixtures were incubated in a shaking water bath (37 °C, 90 rpm). Aliquots (30 μL) were collected at 0, 15, 30, and 45 min from the mixture and the reaction was terminated by the addition of a 4-fold volume of ice-cold acetonitrile to the sample. The mixture was then vortexed for 5 min and centrifuged for 10 min at 10,000× g. The supernatant was collected and stored at -80 °C until the analysis. For the hepatocyte incubation study, rat hepatocytes were freshly prepared using the two-step collagenase perfusion method with slight modifications. After the isolation, cell viability during the preparation process was first determined by a trypan blue exclusion assay prior to the stability study. The preparation was considered adequate for subsequent studies if the viability was greater than 80%. When appropriate, the hepatocytes were resuspended in Williams' media E containing 10% fetal bovine serum, 1% penicillin-streptomycin, and 0.01% insulin-transferrin-selenium (i.e., 10 mg/mL insulin, 5.5 mg/mL transferrin, and 5 mg/mL selenium) at pH 7.4. The reaction was carried out with the hepatocyte suspension prepared at 1 × 10^6 cells/mL (0.5 mL) and initiated by the addition of equal volume of IDP-73152 solution (i.e., final concentration of the compound at 1 μM in 0.5 × 10^6 cells/mL of hepatocytes) to the hepatocyte suspension. […] Assuming first-order disappearance kinetics, the slope k of the logarithmically transformed IDP-73152 concentration in the sample versus time plot was determined by the linear regression analysis of the data. The total intrinsic clearance (CLint,mic, μL/min/mg protein for microsomal incubation study and CLint,hep, μL/min/million cells for hepatocytes incubation study) was then calculated using the following equations:(4) CLint, mic=k×Volume of incubation medium (μL)/Protein in incubation medium (mg) (5) CLint,hep=k×Volume of incubation (μL)/Number of cells in incubation (×10^6) The unbound intrinsic clearance, with respect to the whole liver ([…]), was then estimated for the two cases. […]
For orientation: Microsomes from liver hold many membrane-bound enzymes, among them those of drug oxidation.

A short description of data set [2]: Stability in plasma, mouse. It counts as in vitro ADME. The following applies: mice plasma. The protocol: The unbound fractions of IDP-73152 in various matrices were measured according to the manufacturer's instructions for the rapid equilibrium dialysis (RED) device (ThermoFisher Scientific, Waltham, MA, USA). Briefly, IDP-73152 was added to the plasma or the microsomal/hepatocyte incubation buffer from various species (i.e., mouse, rat, dog, and human for microsomal incubation; rat for hepatocyte incubation) to obtain final concentrations of the compound at 0.3, 1, and 3 μM. After the membrane insert was placed in the RED plate, the solution containing IDP-73152 was added (400 μL) to the sample chamber, and the dialysis buffer (600 μL) was added to the buffer chamber. The RED plate was sealed with parafilm and then incubated at 37 °C in the orbital shaker (Lab Companion, Daejeon, Korea) at 100 rpm for 5 h. […] The IDP-73152 concentration in the buffer/sample chambers (i.e., CBuffer Chamber and CSample Chamber) was determined by an assay. Thus, the fraction unbound was defined as:(2) % Fraction unbound=(CBuffer Chamber/CSample Chamber)×100% When necessary, the stability of IDP-73152 in the matrix was also determined at 5 h. […] Accordingly, the kinetics of IDP-73152 instability were determined in the rat blood at a final concentration of 0.3 μM. […]

The nature of data set [3]: Metabolic stability in liver microsomes, dog. The class given is in vitro ADME. How it is done:
as §1

A short description of data set [4]: Physicochemical properties (Table S3).

As for `CC(C)(C)[C@H](NC(=O)[C@H](CC1CCCC1)CN(O)C=O)C(=O)N1CCC(NCc2cc(F)c(F)cc2F)CC1` [IDP-73152], the CLhep predicted at 1 μM in data set [1] (human, liver microsomes, pH 7.4, humans, from microsomal stability data, well-stirred liver model, read-out: CLp expected in humans (converted)) is around 3.17 mL/min/kg; in data set [3] (dog, liver microsomes, pH 7.4, dogs, read-out: CLh calculated from the CLint,mic (converted)) it was 8.87 mL/min/kg. In addition, the microsomal CLint at 1 μM in data set [1] (human, microsomes, pH 7.4) turned out to be 31.8 ± 2.2 µL/min/mg; in data set [3] (dog, pH 7.4, dogs liver microsomes 0.5 mg/mL, 1 μM, read-out: CLint,mic), 62.6 ± 2.4 µL/min/mg. Moreover, the “hepatic ER (extraction ratio)” value in data set [1] (humans, from microsomal clearance, well-stirred model) came to 0.159 ± 0.009; in data set [3] (dogs, from microsomal clearance, well-stirred model), 0.106 ± 0.004. Further, the “CLu,int,H” value turned out to be 206 ± 14 L/h in data set [1] (humans, scaled up to the whole liver from microsomes) and 108 ± 4 L/h in data set [3] (dogs, scaled up to the whole liver from microsomes). The “percentage remaining in plasma at 5 h” value in data set [2] (5 h, 37 °C) came out at 92.3 ± 2.7%. Besides, in data set [2] (preliminary study), the “stability in plasma” value is given as “stable”. In addition, in data set [4], the logP (in general, the decadic logarithm of the partition coefficient of the neutral form, usually between octanol and water) is -0.52. Besides, the pKa (in general, the pH at which an ionisable group is half protonated) in data set [4] is 8.8.
